Measured values from the NIST ThermoML archive (doi:10.1016/j.fluid.2008.07.003).

Conditions: Liquid

FCC(F)(F)F [1,1,1,2-tetrafluoroethane]
Conditions | vapor or sublimation pressure [kPa]
283.15 K | 416
293.15 K | 572.4
303.15 K | 771.5
313.15 K | 1017.5
323.15 K | 1318.8
333.15 K | 1681.6
343.15 K | 2114.5
353.15 K | 2629
